Source: ChEMBL document CHEMBL1141649, “Inhaled adenosine A(2A) receptor agonists for the treatment of chronic obstructive pulmonary disease” (Bioorg Med Chem Lett, 2008)
Blank lines part the entries; values can stand above or below the molecule they belong to. Calls of active or inactive are those of the source. The rule behind the calls is not given here.

What was measured:
Adenosine receptor A2a = Adenosine receptor A2a (Homo sapiens, UniProt P29274); test: Agonist activity at adenosine A2A receptor; assay type: functional
Sequence of Adenosine receptor A2a (P29274 whole entry): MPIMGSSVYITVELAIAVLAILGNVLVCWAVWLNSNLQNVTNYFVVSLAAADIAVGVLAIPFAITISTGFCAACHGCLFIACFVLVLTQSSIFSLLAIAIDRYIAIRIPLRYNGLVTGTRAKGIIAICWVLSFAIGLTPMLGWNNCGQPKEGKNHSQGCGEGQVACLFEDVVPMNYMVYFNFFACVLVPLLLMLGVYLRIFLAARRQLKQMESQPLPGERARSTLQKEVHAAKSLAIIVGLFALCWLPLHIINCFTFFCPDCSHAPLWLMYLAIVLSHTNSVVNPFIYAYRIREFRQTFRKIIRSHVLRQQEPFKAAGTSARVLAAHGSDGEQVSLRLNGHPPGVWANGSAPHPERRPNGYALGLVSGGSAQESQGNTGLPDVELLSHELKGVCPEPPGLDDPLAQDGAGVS

Rattus norvegicus = test: Unbound clearance in rat at 1 mg/kg, iv; assay type: ADME, organism-based; set-up: dose 1 mg/kg, route intravenous; conditions: in vivo
[1] = Membrane permeability by PAMPA assay; assay type: ADME; conditions: read-out: permeability
[2] = Clearance in rat at 1 mg/kg, iv; assay type: ADME, organism-based; set-up: dose 1 mg/kg, route intravenous; conditions: in vivo
[3] = Cmax in intratracheally dosed rat at 1 mg/kg; assay type: ADME, organism-based; set-up: dose 1 mg/kg, route endotracheal; conditions: in vivo, inhaled or intranasal
[4] = Intrinsic clearance in human liver microsomes; assay type: ADME, Microsome
[5] = Distribution coefficient, log D at pH 7.4; assay type: physicochemical; conditions: octanol/water
Neutrophil = test: Inhibition of […]-induced super oxide production in human neutrophils; assay type: functional, cell-based
Cavia porcellus [6] = organism: Cavia porcellus; test: Toxicity assessed as reduction in diastolic blood pressure in guinea pig; assay type: organism-based; set-up: scale not given: the % may be the effect or the level left; conditions: in vivo
Cavia porcellus [7] = organism: Cavia porcellus; test: Inhibition of capsaicin-induced bronchoconstriction in guinea pig after 15 mins; assay type: functional, organism-based

SMILES: O=C(NCCN1CCCCC1)c1nc(NCC(c2ccccc2)c2ccccc2)c2ncn([C@@H]3O[C@H](CO)[C@@H](O)[C@H]3O)c2n1
CL (Rattus norvegicus): 755 mL/min/kg | Papp [1]: 0.2 ×10⁻⁶ cm/s | clearance [2]: 48 mL/min/kg | Cmax [3]: 20 nM | microsomal CLint [4]: 62.6 µL/min/mg | logD [5]: 2.1 | IC50 (Adenosine receptor A2a): 65 nM

SMILES: CCNC(=O)[C@H]1O[C@@H](n2cnc3c(N)nc(NCCc4ccc(CCC(=O)O)cc4)nc32)[C@H](O)[C@@H]1O [CGS-21680]
CL (Rattus norvegicus): 82 mL/min/kg | Papp [1]: < 0.2 ×10⁻⁶ cm/s | IC50 (Neutrophil): 47 nM | clearance [2]: 14 mL/min/kg | Cmax [3]: 271 nM | microsomal CLint [4]: < 8 µL/min/mg | logD [5]: -0.15 | Activity (Cavia porcellus [6]): 30% | Activity (Cavia porcellus [7]): Active

SMILES: CCNC(=O)[C@H]1O[C@@H](n2cnc3c(NCC(c4ccccc4)c4ccccc4)nc(NCCC4CCCCC4)nc32)[C@H](O)[C@@H]1O
IC50 (Adenosine receptor A2a): 1000 nM

SMILES: COC[C@H]1O[C@@H](n2cnc3c(NCC(c4ccccc4)c4ccccc4)nc(NCCC4CCCCC4)nc32)[C@H](O)[C@@H]1O
IC50 (Adenosine receptor A2a): 1010 nM

SMILES: COC[C@H]1O[C@@H](n2cnc3c(NCC(c4ccccc4)c4ccccc4)nc(CNC4CCCCC4)nc32)[C@H](O)[C@@H]1O
IC50 (Adenosine receptor A2a): 100 nM

SMILES: COC[C@H]1O[C@@H](n2cnc3c(NCC(c4ccccc4)c4ccccc4)nc(CCNC4CCCCC4)nc32)[C@H](O)[C@@H]1O
IC50 (Adenosine receptor A2a): 28 nM

The remaining molecules from weak to strong by IC50 (Adenosine receptor A2a), led by results:

IC50 (Adenosine receptor A2a): 60 nM
SMILES: COC[C@H]1O[C@@H](n2cnc3c(NCC(c4ccccc4)c4ccccc4)nc(NCCN4CCCCC4)nc32)[C@H](O)[C@@H]1O

IC50 (Adenosine receptor A2a): 33 nM
SMILES: CCNC(=O)[C@H]1O[C@@H](n2cnc3c(NCC(c4ccccc4)c4ccccc4)nc(CNC(=O)NCCN(C4CCCCC4)C(C)(C)C)nc32)[C@H](O)[C@@H]1O

IC50 (Adenosine receptor A2a): 17 nM
SMILES: CCNC(=O)[C@H]1O[C@@H](n2cnc3c(NCC(c4ccccc4)c4ccccc4)nc(CNC(=O)NCCN4CCCCC4)nc32)[C@H](O)[C@@H]1O

IC50 (Adenosine receptor A2a): 11 nM
SMILES: CCNC(=O)[C@H]1O[C@@H](n2cnc3c(NCC(c4ccccc4)c4ccccc4)nc(CNC(=O)NCCN(C(C)C)C(C)C)nc32)[C@H](O)[C@@H]1O

IC50 (Adenosine receptor A2a): 9 nM
SMILES: CCNC(=O)[C@H]1O[C@@H](n2cnc3c(NCC(c4ccccc4)c4ccccc4)nc(C(=O)NCCN4CCCCC4)nc32)[C@H](O)[C@@H]1O

CL (Rattus norvegicus): 3500 mL/min/kg | Papp [1]: < 0.7 ×10⁻⁶ cm/s | clearance [2]: 45 mL/min/kg | Cmax [3]: 1.8 nM | microsomal CLint [4]: 135 µL/min/mg | logD [5]: 2 | IC50 (Adenosine receptor A2a): 6 nM
SMILES: CCNC(=O)[C@H]1O[C@@H](n2cnc3c(NCC(c4ccccc4)c4ccccc4)nc(CNC(=O)NCCN(C(C)C)C4CCCC4)nc32)[C@H](O)[C@@H]1O
